22 compounds from patent publication US10689343B2, “Inhibitors of tryptophan 2,3-dioxygenase” (NETHERLANDS TRANSLATIONAL RESEARCH CENTER B.V., priority 2016, dated 2020) can be followed below.

One experiment addresses CYP3A4 (Homo sapiens, UniProt P08684). The experiment in a line: P450-Glo CYP3A4 luciferin isopropylacetal (Luc-IP) assay.
In experiment [1] the target is T1, TDO in SW48 colorectal carcinoma cells (Homo sapiens, UniProt P48775).
T1 construct: Endogenous expression of TDO has been determined in a variety of cancer cell lines; host or cells: SW48 colorectal carcinoma cells
Description: Cell-based assay for TDO in SW48 colorectal carcinoma cells (NFK GreenScreen). The settings on record: 18 hours with L-tryptophan. On the procedure: The biological activity of TDO inhibitors can be measured by applying above detection methods to cells that are treated with test compound. Endogenous expression of TDO has been determined in a variety of cancer cell lines (Pilotte et al.; Seegers, et al.), or TDO can be expressed in cells that lack endogenous TDO by transfection of an expression vector containing TDO cDNA. […] A preferred assay is the cell-based NFK GreenScreen™ assay (Seegers et al, supra), which measures the cellular inhibitory activity of compounds on TDO. […] No. V9920). Cell-Based Assay for TDO The NFK GreenScreen™ assay technology was also used to determine the inhibitory activity of compounds on TDO in SW48 colorectal carcinoma cells (Seegers, N., et al., J. Biol. Screen. 19: 1266; 2014). […] Compounds were dissolved in DMSO and diluted in RPMI 1640. Final DMSO concentration in the assay was 0.4% (v/v). Eight thousand cells per well in 40 μl were seeded in a black 384-well tissue plate (cat. No. 781086; […] To determine NFK levels, 12 μl NFK Green™ (NTRC, Oss, The Netherlands) was added to each well, and the plate was sealed and incubated for 4 hours at 37° C. Fluorescence was measured on an EnVision multimode reader (Perkin Elmer, Waltham, Mass., USA).

The next experiment addresses CYP2D6 (Homo sapiens, UniProt P10635). Description: P450-Glo CYP2D6 Luc-IP assay.
A further experiment addresses T2, Recombinant TDO (Homo sapiens, UniProt P48775).
T2 construct: Recombinant TDO (Seegers, N., et al.) and all other assay components were diluted in TDO reaction buffer
Description: Biochemical assay for TDO (NFK GreenScreen). The settings on record: 50 nM TDO, 200 μM L-tryptophan. On the procedure: Biochemical Assay for TDO
The NFK GreenScreen™ assay technology was also used to determine the inhibitory activity of compounds on TDO (Seegers, N., et al., J. Biol. Screen. 19: 1266; 2014). Compounds were serially diluted in DMSO and finally in TDO reaction buffer, consisting of 100 mM NaH2PO4, pH 7.0, supplemented with 0.02% Tween-20 (cat. No. P7949; Sigma Aldrich). Recombinant TDO (Seegers, N., et al.) and all other assay components were diluted in TDO reaction buffer. 10 μl of compound solution and 20 μl of enzyme solution supplemented with 200 μM ascorbic acid were combined in the well of a black 384-well plate (cat. no. 3573; Corning, Corning, N.Y., USA), and incubated for 60 min at room temperature. Subsequently, 10 μl of 0.8 mM of the substrate L-tryptophan was added, i.e., the final concentration of L-tryptophan was 200 μM. The DMSO concentration in the assay was 0.3%. The concentration of TDO was 50 nM. Incubation was continued for 15 min at room temperature. Then, 10 μl of NFK Green™ (NTRC, Oss, The Netherlands) was added, the plate was sealed, and the reaction was developed for 3 hours at 37° C. To determine the production of N-formyl kynurenine (NFK), the seal was removed and fluorescence was read on an EnVision multimode reader (Perkin Elmer, Waltham, Mass., USA). IC50 were calculated using XLfit™ software (ID Business Solutions, Ltd., Surrey, U.K.).

The structures appear in SMILES notation. “And” between values parts separate entries of the source, which are not always exact repeats. Identical values can stand only once. Like-named read-outs stand apart in the source and are kept apart here.

T1 sequence (P48775 whole entry): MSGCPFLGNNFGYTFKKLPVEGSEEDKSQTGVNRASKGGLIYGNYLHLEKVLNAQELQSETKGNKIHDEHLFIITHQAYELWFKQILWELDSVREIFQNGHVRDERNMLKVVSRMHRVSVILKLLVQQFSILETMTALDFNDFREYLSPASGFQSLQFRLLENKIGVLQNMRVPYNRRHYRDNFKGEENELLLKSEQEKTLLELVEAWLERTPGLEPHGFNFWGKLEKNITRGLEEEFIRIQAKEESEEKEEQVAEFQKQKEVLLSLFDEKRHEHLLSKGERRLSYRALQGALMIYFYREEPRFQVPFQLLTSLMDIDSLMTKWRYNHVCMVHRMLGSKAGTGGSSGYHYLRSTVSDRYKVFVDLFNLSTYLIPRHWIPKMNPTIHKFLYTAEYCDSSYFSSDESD
T2 sequence (P48775 whole entry): as above
Chain of CYP3A4 (P08684 whole entry): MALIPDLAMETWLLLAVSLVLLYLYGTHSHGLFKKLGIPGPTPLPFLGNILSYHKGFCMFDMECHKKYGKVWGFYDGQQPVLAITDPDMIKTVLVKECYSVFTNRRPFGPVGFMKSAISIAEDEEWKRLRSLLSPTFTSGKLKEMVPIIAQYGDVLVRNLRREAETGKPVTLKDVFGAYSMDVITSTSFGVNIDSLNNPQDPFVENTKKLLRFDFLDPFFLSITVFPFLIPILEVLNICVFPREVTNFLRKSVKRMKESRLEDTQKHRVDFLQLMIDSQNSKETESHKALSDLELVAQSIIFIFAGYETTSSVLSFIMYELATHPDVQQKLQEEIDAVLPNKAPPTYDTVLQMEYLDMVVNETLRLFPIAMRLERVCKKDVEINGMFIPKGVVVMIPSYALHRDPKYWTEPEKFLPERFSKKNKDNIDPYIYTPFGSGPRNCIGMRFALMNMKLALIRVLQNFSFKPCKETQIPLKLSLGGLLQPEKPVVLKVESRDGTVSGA
Chain of CYP2D6 (P10635 whole entry): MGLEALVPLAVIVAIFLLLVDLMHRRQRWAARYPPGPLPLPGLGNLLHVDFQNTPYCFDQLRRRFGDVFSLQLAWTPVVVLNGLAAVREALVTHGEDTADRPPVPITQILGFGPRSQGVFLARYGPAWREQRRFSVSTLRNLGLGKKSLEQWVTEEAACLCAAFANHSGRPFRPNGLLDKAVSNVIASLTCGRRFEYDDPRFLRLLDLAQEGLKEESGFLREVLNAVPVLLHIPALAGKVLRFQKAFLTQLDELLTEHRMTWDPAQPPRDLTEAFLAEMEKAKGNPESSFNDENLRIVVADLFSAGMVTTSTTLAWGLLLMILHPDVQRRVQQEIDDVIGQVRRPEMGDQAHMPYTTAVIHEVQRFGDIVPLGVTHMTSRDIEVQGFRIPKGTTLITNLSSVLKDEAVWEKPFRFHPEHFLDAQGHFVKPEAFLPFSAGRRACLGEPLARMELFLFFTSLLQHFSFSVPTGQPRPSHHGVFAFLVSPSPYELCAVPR
Description for CYP3A4: To determine the inhibitory potency of compounds on CYP3A4 enzyme, the P450-Glo CYP3A4 luciferin isopropylacetal (Luc-IP) assay was used (Promega, Madison, Wis., USA, Cat. No. V9920). The assay makes use of a luminogenic isopropylacetal (IPA) substrate that is a derivative from beetle luciferin, a substrate of luciferase enzymes. The IPA substrate is converted by CYP3A4 to luciferin, which in turn reacts with luciferase to produce an amount of light that is directly proportional to the activity of CYP3A4. Compounds were serially diluted in DMSO and finally in 400 mM K2HPO4, pH 7.4. 5 μl of compound solution and 5 μl of CYP3A4/substrate solution were combined in the well of a white 384-well Optiplate (Perkin Elmer). The DMSO concentration in the assay was 0.1%. After incubation for 10 minutes at room temperature in the dark, 10 μl of NADPH regeneration system was added and incubation was continued for 10 min. Then, 20 μl of Luciferin Detection Reagent was added to stop the reaction, and incubation was continued for another 20 min. Luminescence was measured on an Envision multimode reader and IC50 values were calculated using XLfit™. […] Instead of in a 96-well plate, the assay was performed in 384-well white Perkin Elmer Optiplate (cat. no. 6007290).

Take `CC(CN(C)C)NC(=O)c1ccc(-c2c[nH]c3cc(F)ccc23)cc1` (stereo not shown) [Example 1, N-[2-(dimethylamino)-1-methyl-ethyl]-4-(6-fluoro-1H-indol-3-yl)benzamide]: the IC50 (as a rule, the concentration needed to halve the response being measured) is greater than 10 µM on CYP3A4, no more than 0.2 µM in experiment [1] (read-out: IC50 on TDO in cells), greater than 10 µM on CYP2D6 and less than 1 µM at Recombinant TDO.

In the case of `CC(C)NC(=O)c1ccc(-c2c[nH]c3cc(F)ccc23)cc1` [Example 2, 4-(6-Fluoro-1H-indol-3-yl)-N-isopropyl-benzamide], the IC50 against CYP3A4 was greater than 10 µM; in experiment [1] (read-out: IC50 on TDO in cells), no more than 0.2 µM; against CYP2D6, greater than 10 µM; at Recombinant TDO it was less than 1 µM.

On to `CC(C)[C@@H](CO)NC(=O)c1ccc(-c2c[nH]c3cc(F)ccc23)cc1` [Example 3, 4-(6-Fluoro-1H-indol-3-yl)-N-[(1S)-1-(hydroxymethyl)-2-methyl-propyl]benzamide], for which the IC50 against CYP3A4 was greater than 10 µM; in experiment [1] (read-out: IC50 on TDO in cells), ≤ 0.5 µM and 0.2 to 0.5 µM; at CYP2D6, greater than 10 µM; on Recombinant TDO, less than 1 µM.

`CC(=O)Nc1ccc(-c2c[nH]c3cc(F)ccc23)cc1` [Example 4, N-[4-(6-Fluoro-1H-indol-3-yl)phenyl]acetamide]: the IC50 was greater than 10 µM against CYP3A4; ≤ 0.5 µM and 0.2 to 0.5 µM in experiment [1] (read-out: IC50 on TDO in cells); greater than 10 µM on CYP2D6; less than 1 µM on Recombinant TDO.

For `O=C(NCCO)c1ccc(-c2c[nH]c3cc(F)ccc23)cc1` [Example 10, 4-(6-Fluoro-1H-indol-3-yl)-N-(2-hydroxyethyl)benzamide], the half-inhibitory concentration (IC50) on CYP3A4 was greater than 10 µM; in experiment [1] (read-out: IC50 on TDO in cells), ≤ 0.5 µM and 0.2 to 0.5 µM; on CYP2D6, 5 to 10 µM; at Recombinant TDO, less than 1 µM.

For `N#CC1(NC(=O)c2ccc(-c3c[nH]c4cc(F)ccc34)cc2)CC1` [Example 12, N-(1-cyanocyclopropyl)-4-(6-fluoro-1H-indol-3-yl)benzamide], the IC50 is greater than 10 µM on CYP3A4; ≤ 0.5 µM and 0.2 to 0.5 µM in experiment [1] (read-out: IC50 on TDO in cells); greater than 10 µM at CYP2D6; less than 1 µM at Recombinant TDO.

Consider `CC(C)(O)CNC(=O)c1ccc(-c2c[nH]c3cc(F)ccc23)cc1` [Example 13, 4-(6-Fluoro-1H-indol-3-yl)-N-(2-hydroxy-2-methyl-propyl)benzamide], for which the IC50 at CYP3A4 was greater than 10 µM; in experiment [1] (read-out: IC50 on TDO in cells), ≤ 0.5 µM and 0.2 to 0.5 µM; on CYP2D6 it was greater than 10 µM; on Recombinant TDO, less than 1 µM.

In the case of `C[C@H](CO)NC(=O)c1ccc(-c2c[nH]c3cc(F)ccc23)cc1` [Example 14, 4-(6-fluoro-1H-indol-3-yl)-N-[(1R)-2-hydroxy-1-methyl-ethyl]benzamide], the half-maximal inhibitory concentration (IC50) on CYP3A4 was greater than 10 µM; in experiment [1] (IC50 on TDO in cells), ≤ 0.5 µM and 0.2 to 0.5 µM; against CYP2D6, 5 to 10 µM; on Recombinant TDO, less than 1 µM.

As for `C[C@@H](CO)NC(=O)c1ccc(-c2c[nH]c3cc(F)ccc23)cc1` [Example 15, 4-(6-fluoro-1H-indol-3-yl)-N-[(1S)-2-hydroxy-1-methyl-ethyl]benzamide], the IC50 on CYP3A4 is greater than 10 µM; in experiment [1] (IC50 on TDO in cells), no more than 0.2 µM; against CYP2D6 it was greater than 10 µM; on Recombinant TDO, less than 1 µM.

On to `O=C(N[C@@H](CO)c1ccccc1)c1ccc(-c2c[nH]c3cc(F)ccc23)cc1` [Example 16, 4-(6-fluoro-1H-indol-3-yl)-N-[(1R)-2-hydroxy-1-phenyl-ethyl]benzamide], for which the IC50 at CYP3A4 was 5 to 10 µM; in experiment [1] (read-out: IC50 on TDO in cells), ≤ 0.5 µM and 0.2 to 0.5 µM; against CYP2D6, 5 to 10 µM; at Recombinant TDO, 1 to 5 µM.

As to `COC[C@@H](C)NC(=O)c1ccc(-c2c[nH]c3cc(F)ccc23)cc1` [Example 17, 4-(6-Fluoro-1H-indol-3-yl)-N-[(1R)-2-methoxy-1-methyl-ethyl]benzamide], the IC50 was greater than 10 µM at CYP3A4; ≤ 0.5 µM and 0.2 to 0.5 µM in experiment [1] (read-out: IC50 on TDO in cells); greater than 10 µM against CYP2D6; less than 1 µM at Recombinant TDO.

With `O=C(N[C@H]1CCCNC1)c1ccc(-c2c[nH]c3cc(F)ccc23)cc1` [Example 19, 4-(6-Fluoro-1H-indol-3-yl)-N-[(3S)-3-piperidyl]benzamide], the concentration for half-maximal inhibition (IC50) against CYP3A4 is greater than 10 µM; in experiment [1] (read-out: IC50 on TDO in cells) it was no more than 0.2 µM; at CYP2D6, greater than 10 µM; at Recombinant TDO, less than 1 µM.

On to `O=C(N[C@@H]1CN2CCC1CC2)c1ccc(-c2c[nH]c3cc(F)ccc23)cc1` [Example 20, 4-(6-Fluoro-1H-indol-3-yl)-N-[(3S)-quinuclidin-3-yl]benzamide], for which the IC50 against CYP3A4 was greater than 10 µM; in experiment [1] (read-out: IC50 on TDO in cells) it was no more than 0.2 µM; against CYP2D6, greater than 10 µM; at Recombinant TDO, less than 1 µM.

For `Cc1cc(CC(=O)Nc2ccc(-c3c[nH]c4cc(F)ccc34)cc2)no1` [Example 99, N-[4-(6-Fluoro-/H-indol-3-yl)phenyl]-2-(5-methylisoxazol-3-yl)acetamide], the IC50 against CYP3A4 was greater than 10 µM; at CYP2D6, greater than 10 µM; at Recombinant TDO, 1 to 5 µM.

On to `Cn1cc(CCC(=O)Nc2ccc(-c3c[nH]c4cc(F)ccc34)cc2)cn1` [Example 107, N-[4-(6-fluoro-1H-indol-3-yl)phenyl]-3-(1-methylpyrazol-4-yl)propanamide], for which the IC50 against CYP3A4 was greater than 10 µM; in experiment [1] (read-out: IC50 on TDO in cells), ≤ 0.5 µM and 0.2 to 0.5 µM; on CYP2D6, greater than 10 µM.

As to `CN1CC(C(=O)Nc2ccc(-c3c[nH]c4cc(F)ccc34)cc2)CCC1=O` (stereo not shown) [Example 108, N-[4-(6-fluoro-1H-indol-3-yl)phenyl]-1-methyl-6-oxo-piperidine-3-carboxamide], the IC50 on CYP3A4 was greater than 10 µM; against CYP2D6 it was greater than 10 µM; on Recombinant TDO it was 1 to 5 µM.

In the case of `CS(=O)(=O)N1CCCC(NC(=O)c2ccc(-c3c[nH]c4cc(F)ccc34)cc2)C1` (stereo not shown) [Example 120, 4-(6-Fluoro-1H-indol-3-yl)-N-(1-methylsulfonyl-3-piperidyl)benzamide], the IC50 at CYP3A4 was greater than 10 µM; in experiment [1] (read-out: IC50 on TDO in cells), ≤ 0.5 µM and 0.2 to 0.5 µM; at CYP2D6 it was greater than 10 µM.

With `CCOC(=O)N1CCCC(NC(=O)c2ccc(-c3c[nH]c4cc(F)ccc34)cc2)C1` (stereo not shown) [Example 121, Ethyl 3-[[4-(6-fluoro-1H-indol-3-yl)benzoyl]amino]piperidine-1-carboxylate], the IC50 was greater than 10 µM against CYP3A4, greater than 10 µM against CYP2D6 and less than 1 µM at Recombinant TDO.

`Cc1cc(C(=O)N[C@@H](C)CO)ccc1-c1c[nH]c2cc(F)ccc12` [Example 126, 4-(6-Fluoro-1H-indol-3-yl)-N-[(1S)-2-hydroxy-1-methyl-ethyl]-3-methyl-benzamide]: the IC50 is 5 to 10 µM at CYP3A4, 5 to 10 µM on CYP2D6 and 1 to 5 µM at Recombinant TDO.

Turning to `Cc1cc(C(=O)N[C@H](C)CO)ccc1-c1c[nH]c2cc(F)ccc12` [Example 128, 4-(6-Fluoro-1H-indol-3-yl)-N-[(1R)-2-hydroxy-1-methyl-ethyl]-3-methyl-benzamide], the values for the IC50 at CYP3A4, against CYP2D6 and on Recombinant TDO were 5 to 10 µM, 5 to 10 µM and 1 to 5 µM, respectively.

As to `Cc1cc(C(=O)N[C@H]2CCCNC2)ccc1-c1c[nH]c2cc(F)ccc12` [Example 130, 4-(6-Fluoro-1H-indol-3-yl)-3-methyl-N-[(3S)-3-piperidyl]benzamide], the IC50 was 5 to 10 µM at CYP3A4, greater than 10 µM at CYP2D6 and less than 1 µM on Recombinant TDO.

Take `COC(=O)CNC(=O)c1ccc(-c2c[nH]c3cc(F)ccc23)cc1` [Example 138, Methyl 2-[[4-(6-fluoro-1H-indol-3-yl)benzoyl]amino]acetate]: the IC50 against CYP3A4 was greater than 10 µM; against CYP2D6, greater than 10 µM; at Recombinant TDO it was less than 1 µM.
